Assay results reported in patent US9801850B2, “Antibacterial agent” (OSAKA UNIVERSITY, priority 2009, dated 2017).
Values after ≈ are worked out from the molar mass of the structure shown.

Key:
[1] = tested on: Escherichia coli MG1655 (wild type); experiment: MIC, influence of multidrug efflux pump (Example 5); format: cell-based
Experimental: (§1) Using the EGCG derivatives, the minimum inhibitory concentration (MIC) was measured in the same manner as described in Section (2) of Example 2, except that Escherichia coli MG1655 (hereinafter referred to as a wild-type strain) and gene deletion strains of Escherichia coli MG1655 were used as the bacteria. The gene deletion strains were: strains obtained by deleting the efflux pump genes, namely, acrB, acrD, and acrEF, respectively, in Escherichia coli MG1655 (ΔacrD, ΔacrEF, and ΔacrB); and a strain obtained by deleting the outer membrane protein tolC gene that couples to proteins encoded by the efflux pump genes (ΔtolC).
(§2) As Comparative Example 5, the minimum inhibitory concentration (MIC) was measured in the same manner as in Example 5, except that EGCG was used instead of the EGCG derivative.

[2] = tested on: Escherichia coli MG1655 ΔacrEF; experiment: as above; format: cell-based
Experimental: as §1, §2

[3] = tested on: Escherichia coli MG1655 ΔacrD; experiment: as above; format: cell-based
Experimental: as §1, §2

[4] = tested on: Escherichia coli MG1655 ΔtolC; experiment: as above; format: cell-based
Experimental: as §1, §2

[5] = tested on: Escherichia coli MG1655 ΔacrB; experiment: as above; format: cell-based
Experimental: as §1, §2

[6] = tested on: Methicillin-susceptible Staphylococcus aureus (MSSA) NCTC8325; experiment: MIC, broth microdilution (Example 1); format: cell-based; settings: MH-broth, 37° C., 18 hours
MRSA ATCC43300 = experiment: Membrane damaging properties, SYTOX Green fluorescence (Example 4); format: cell-based, Staphylococcus aureus; settings: for fluorescence intensity ratio of SYTOX Green (control PBS = 1): 37° C., 15 minutes, EGCG derivative 4-32, EGCG 8-128, NISIN 1-8 μg/ml, FIG. 3
Experimental: As an antibacterial agent, the EGCG-C16 prepared in Example 1 was used in Example 4; EGCG was used in Comparative Example 4; and membrane-damaging peptide NISIN (MP Biomedicals) was used in a reference example. Antibacterial agent solutions of EGCG-C16 and EGCG were prepared by dissolving them in DMSO so as to achieve top concentrations, respectively. An antibacterial agent solution of the other antibacterial agent was prepared by dissolving it in PBS and diluted with PBS as appropriate. The influence of DMSO used for dissolving the antibacterial agents also was considered.
MSSA ATCC25923 and MRSA ATCC43300 were subjected to shaking culture in MH-broths (Difco) until they reached a late stage in the exponential growth phase. The thus-obtained culture solutions were each centrifuged at 7000 rpm for 10 minutes, and bacterial cells that had settled were suspended in PBS. The suspension of the bacterial cells was added to wells of a 384 black plate, and each of the antibacterial agent solutions was further added thereto and mixed. The resultant mixture was incubated at 37° C. for 15 minutes. Subsequently, a dead cell-staining dye (trade name “SYTOX Green”, LONZA) was mixed in each well so that the concentration thereof became 10 μmol/l, and the resultant mixture was incubated at 37° C. for 10 minutes. The final concentrations of the respective antibacterial agents were as follows: 4, 8, 16, and 32 μg/ml for the EGCG derivative; 8, 16, 32, 64, and 128 μg/ml for EGCG; and 1, 2, 4, and 8 μg/ml for NISIN. […] On the other hand, as a control, the fluorescence intensity was measured in the same manner, except that PBS or 10% DMSO was added instead of the antibacterial agent solutions. Then, regarding each of the MSSA and MRSA, the ratio of the fluorescence intensity when each of the agents was added was calculated assuming that the fluorescence intensity obtained in the control (PBS) was 1.

Row | Compound | MIC [1] [µg/mL] | MIC [2] [µg/mL] | MIC [3] [µg/mL] | MIC [4] [µg/mL] | MIC [5] [µg/mL] | MIC [6] [µg/mL] | fluorescence intensity ratio of SYTOX Green (control PBS = 1) (MRSA ATCC43300) | cell membrane-damaging action at high concentration (SYTOX Green) (MRSA ATCC43300; EGCG-C16 at 64 μg/ml)
1 | EGCG-palmitoleate [EGCG-C16E] | >128 | >128 | >128 | 64 | 64 | – | – | –
2 | EGCG-stearate [EGCG-C18] | – | – | – | – | – | 16 | – | –
3 | EGCG-α-linoleate [EGCG-C18TE] | >128 | >128 | >128 | 64 | 64 | – | – | –
4 | EGCG-dioctanoate [EGCG-C8×2] | >128 | >128 | >128 | 32 | 64 | – | – | –
5 | EGCG-palmitate [EGCG-C16] | >128 | >128 | >128 | 64 | 64 | 8 | very high fluorescence intensity ratio | tendency for this action of EGCG-C16 to become weak
6 | O=C(O[C@@H]1Cc2c(O)cc(O)cc2O[C@@H]1c1cc(O)c(O)c(O)c1)c1cc(O)c(O)c(O)c1 [EGCG, Epigallocatechin gallate, reference compound] | >256 | >256 | >256 | 128 (≈ 279 µM) | 128 (≈ 279 µM) | 128 (≈ 279 µM) | smaller than 1 | –
